The test system of assay [1] is breast cancer cells (T47D, MCF-7, MDA-MB-231, MDA-MB-468, SK-BR-3 and HCC1937). The experiment in a line: Growth inhibition, panel of breast cancer cells. The class given is cell-based. To be noted: Homo sapiens, range over T47D, 48 hours. The procedure: (§1) In an embodiment, the activity of COMP compound was tested in an array of human normal and cancer cell lines (Table 2, FIG. 2).
(§2) Table 2 refers to the growth inhibitory effect of COMP, olaparib and cisplatin (CDDP) in a panel of human immortalized breast (T47D, MCF-7, MDA-MB-231, MDA-MB-468, SK-BR-3 and HCC1937), ovarian and endocervical (OCVAR, SKOV-3, […],IGROV-1 and HeLa), pancreatic (PANC-1 and MIAPACA), neuroblastoma (SHSY-5Y), lung (NCI-H460), prostate (VCaP) melanoma (A375 and SK-MEL-5) and glioblastoma (SF-208) cancer cells, immortalized normal MCF10a and HFF1 human cells, and patient-derived ovarian (PD-OVCA #1, #9, #41, #49 and #62) cancer cells. […] Data are mean±SEM (n=5).
(§3) In an embodiment, IC50 values were determined by Sulforhodamine B (SRB) or MTS [3-(4,5-dimethylthiazol-2-yl)-5-(3-carboxymethoxyphenyl)-2-(4-sulfophenyl)-2H-tetrazolium] assay in immortalized and PD-OVCA cells, respectively. Cancer cells were plated in 96-well plates and incubated for 24 hours. Cells were then exposed to serial dilutions of compounds for 48 hours. The solvent DMSO corresponding to the maximum concentration used in these assays (0.025%) was included as control. Results are the mean±S.E.M. of 3-5 independent experiments.

The next assay has as its system MiaPACA. The assay can be described thus: Growth inhibition, SRB assay, MiaPACA. The assay is classed as cell-based. The note with it: Homo sapiens, MIA PaCa-2, wild-type BRCA1/2, 48 hours.
Excerpt: as §2, §3
(In general: The SRB assay estimates cell density from bound dye.)

A further assay relates to BRCA1. The experiment in a line: BRCA1 cellular localization by immunofluorescence. The assay is classed as cell-based, human. The note with it: 12 μM, 48 hours; MDA-MB-231, HCC1937 and IGROV-1 cells. The procedure: FIG. 10 illustrates the effect of 12 μM COMP on (A) γH2AX expression levels and on (FIG. 10B) γH2AX and RAD51 foci formation, and BRCA1 foci formation and cellular localization after 48 hours of treatment. […] FIG. 10B are representative images generated using Fiji software (scale bar=100 μm; 400 × magnification).

A further assay concerns SK-MEL-5. The assay can be described thus: Growth inhibition, SRB assay, SK-MEL-5. The class given is cell-based. The note with it: Homo sapiens, SK-MEL-5, wild-type BRCA1/2, 48 hours.
Excerpt: as §2, §3

The test system of a further assay is IGROV-1 tumors. The assay can be described thus: In vivo antitumor activity in xenograft mice. The note with it: 2 mg/kg intraperitoneal, seven administrations; compared to vehicle or 50 mg/kg of olaparib. The procedure:
FIG. 14 illustrates the in vivo antitumor activity of COMP. C57BL/6-Rag2−/−IL2rg−/− xenograft mice, carrying IGROV-1 cells, were treated with vehicle (control), or 2 mg/kg of COMP or 50 mg/kg of olaparib by intraperitoneal injection three times per week (seven administrations in total). The treatment was initiated when palpable tumors were established (^˜100 mm3). […] In FIGS. 14A-C, data are mean±SEM, n=13 animals.

The next assay has as its system OVCAR-3. The assay can be described thus: Growth inhibition, SRB assay, OVCAR-3. To be noted: Homo sapiens, OVCAR-3, 48 h. The assay is classed as cell-based, human.
Excerpt: as §2, §3

Assay [2] concerns triple-negative breast cancer and ovarian cancer cells. The experiment in a line: ROS generation (H2DCFDA flow cytometry). The note with it: 6 and 12 μM, 48 hours. The class given is cell-based, human. How it is done:
Cell cycle phases were analysed by flow cytometry using propidium iodide (PI) and quantified using the FlowJo software. Apoptosis and ROS were analysed by flow cytometry using FITC-Annexin V/PI and 2′,7′-dichlorodihydrofluorescein diacetate (H2DCFDA) respectively.
On the technique in general: Flow cytometry measures light scatter and fluorescence of single cells or particles in a stream.

Assay [3] relates to PD-OVCA#9 (mutBRCA1: c. 4389C > G; mutBRCA2: c6252delT). The assay can be described thus: Growth inhibition, MTS assay, PD-OVCA#9. The assay is classed as cell-based, human. To be noted: Homo sapiens, PD-OVCA#9, pathogenic mutant BRCA1/2, 48 hours.
Excerpt: as §2, §3
On the technique in general: Tetrazolium assays rely on reduction of a dye to a coloured formazan, in cell work by metabolically active cells.

Assay [4] deals with triple-negative breast cancer and ovarian cancer cells (MDA-MB-231, IGROV-1, HCC1937). The assay can be described thus: Colony-formation assay. The assay is classed as cell-based, human. To be noted: 8 days (MDA-MB-231 and IGROV-1), 16 days (HCC1937) of treatment. How it is done: FIG. 4 illustrates the effect of COMP on (A-B) colony formation of cancer cells after 8 days (MDA-MB-231 and IGROV-1) and 16 days (HCC1937) of treatment. In FIG. 4A, representative experiments are shown.
In an embodiment, colony-formation assay was performed.

For assay [5], the system named is patient-derived ovarian cancer cells. The experiment in a line: Growth inhibition, patient-derived ovarian cancer cells. The assay is classed as cell-based. To be noted: Homo sapiens; range over PD-OVCA cells; MTS, 48 hours. The procedure:
as §1, §2, §3

Assay [6] relates to PD-OVCA#41 (mutBRCA2: c. 3707dupA). The assay can be described thus: Growth inhibition, MTS assay, PD-OVCA#41. The note with it: Homo sapiens, PD-OVCA#41, benign mutant BRCA1 with pathogenic mut BRCA2, 48 hours. The assay is classed as cell-based, human.
Excerpt: as §2, §3

Assay [7] concerns MDA-MB-231, HCC1937 and IGROV-1 cells. The assay can be described thus: Combination with CDDP or olaparib, SRB assay. The assay is classed as cell-based, human. The note with it: single concentration of COMP with concentration range of CDDP or olaparib, 48 hours; CI<1, synergy. How it is done:
FIG. 13 illustrates that COMP sensitizes triple-negative breast cancer and ovarian cancer cells to the effect of cisplatin (CDDP) and olaparib. Cells were treated with a concentration range of CDDP and olaparib alone and in combination with a single concentration of COMP (with no significant effect on cells growth) in MDA-MB-231 (FIG. 13A), HCC1937 (FIG. 13B) and IGROV-1 (FIG. 13C). Cell proliferation was measured by SRB assay after 48 hours of treatment; growth obtained with control (DMSO) was set as 100%. […] Combination index (CI) and dose-reduction index (DRI) for each combined treatment were calculated using CompuSyn software (CI<1, synergy; 1<CI<1.1, addictive effect; CI>1.1, antagonism); data were calculated using a mean value effect of six independent experiments.
In an embodiment, COMP sensitizes triple-negative breast cancer and ovarian cancer cells to the effect of CDDP and olaparib as shown by the enhancement of the growth inhibitory effect and promising synergistic effects between COMP and CDDP or olaparib (CI<1), with a noticeable reduction in the effective dose of chemotherapeutic agents (FIGS. 13A-C).

A value given as a limit tells only on which side of the number the result lay.

As a reminder, the IC50 is the concentration at which inhibition is half-maximal.

Consider `CC[C@H]1CN(C)C2Cc3c([nH]c4ccccc34)/C(=N/Nc3ccc(Br)cn3)C[C@@H]1[C@@H]2C(=O)OC` [COMP, methyl (5R,6S,14S,E)-8-(2-(5-bromopyridin-2-yl) hydrazineylidene)-5-ethyl-3-methyl-2,3,4,5,6,7,8,9-octahydro-1H-2,6-methanoazecino [5,4-b]indole-14-carboxylate], for which the IC50 in [1] was 4.4 to 12 µM; in the assay with MiaPACA, 4.5 ± 0.4 µM; in the assay with SK-MEL-5, 5.65 ± 0.95 µM; in the assay on OVCAR-3 (OVCAR-3, BRCA1 wild-type, 48 hours (second Table 2)), 13.9 µM; with OVCAR-3 (OVCAR-3, wild-type BRCA1/2, 48 hours) it was 13.9 ± 1.7 µM; in assay [3], 5.1 ± 1 µM. The half-inhibitory concentration (IC50) in [5] is 2.68 to 15.1 µM; in assay [6] it was 14.1 ± 0.9 µM. The BRCA1 cellular localization entry with BRCA1 is reported as “triggered the nucleocytoplasmic translocation of BRCA1”. Moreover, in the assay on IGROV-1 tumors, the “growth of IGROV-1 tumors” value was “significantly inhibited”. For the same molecule, the ROS production result in assay [2] is “increases ROS production”. Moreover, in assay [4], the “colony-forming ability of cancer cells” value is given as “significantly reduced”. For the same molecule, the “Combination index (CI) of COMP with CDDP or olaparib” value in assay [7] is listed as less than 1.

(Values after patent US20250345317A1, “New pharmaceutical compounds, methods and uses thereof” (BBIT-THERAPEUTICS, LDA., priority 2020, published 2025).)
